Experimental data as given in patent US6620985B1, “PAD4 nucleic acid compositions from Arabidopsis and methods therefor” (University of Maryland Biotechnology Institute, priority 1998, dated 2003).

Tests used:
PAD4 mRNA = assay: PAD4 RNA blot analysis after SA treatment; type: in vivo, Arabidopsis thaliana; settings: 5 mM SA
Source text: Inoculations with Bacteria and Treatment with Chemicals. Pseudomonas syringae pv maculicola (Psm) ES4326 (Dong et al., 1991, Plant Cell 3, 61-72; Crute et al., 1994, in Arabidopsis, eds. Meyerowitz & Somerville, Cold Spring Harbor Press, NY, pp. 705-747), Pseudomonas. syringae pv tomato (Pst) DC3000 (Cuppels, 1986, Appl. Environ. Microbiol. 52, 323-327) and Xanthomonas campestris pv campestris (Xcc) BP109 (Weiss et al., 1994, J. Bacteriol. 176, 3354-3359) have been described. The avirulence gene avrRpt2 was carried on plasmid pLH12 as described (Dong et al., 1991, Plant Cell 3, 61-72; Whalen et al., 1991, Plant Cell 3, 49-59). P. syringae strains were grown in King's B medium supplemented with appropriate antibiotics (Glazebrook and Ausubel, 1994, Proc. Natl. Acad. Sci. USA 91, 8955-8959), and Xcc BP1 09 was grown in Luria-Bertani medium supplemented with 50 μg/mL rifampicin. Bacteria were infiltrated into Arabidopsis plants as described (Glazebrook and Ausubel, 1994, PNAS USA 91, 8955-8959; Glazebrook et al., 1996, Genetics 146: 381-392). For camalexin assays, the bacterial dose for P. syringae strains was 3×10^4 colony-forming units (cfu)/cm^2 leaf area (equivalent to OD600=0.006); for Xcc BP109 it was 5×10^5 cfu/cm^2 (OD600=0.1). For experiments involving extraction of total RNA from infected leaves, Psm ES4326 and Psm ES4326 carrying avrRpt2 were introduced at a dose of 10^4 cfu/cm^2 leaf area (equivalent to OD600=0.002). For determination of Psm ES4326 growth, plants were infected with Psm ES4326 at a dose of 10^3 cfu/cm^2 leaf area (equivalent to OD600=0.0002). After […] were excised and bacterial growth was assayed as described (Glazebrook et al., 1996, Genetics 143, 973-982). Data are reported as means and standard deviations of the log(cfu/cm^2) of six replicates. For chemical treatment, plants were sprayed with 5 mM SA or 5 mM silver nitrate with 0.02% Silwet L-77 (Lehle Seeds, Tucson, Ariz.) to reduce surface tension. Control plants were sprayed with water containing 0.02% Silwet L-77.
PAD4 RNA Blot Analysis. […]

Psm ES4326 = Psm ES4326 growth in plants sprayed with SA; type: in vivo, Pseudomonas syringae pv maculicola; settings: 5 mM SA sprayed one day before infection; titer three days after infection; wild-type and pad4-1
Source text: (§1) Inoculations with Bacteria and Treatment with Chemicals. Pseudomonas syringae pv maculicola (Psm) ES4326 (Dong et al., 1991, Plant Cell 3, 61-72; Crute et al., 1994, in Arabidopsis, eds. Meyerowitz & Somerville, Cold Spring Harbor Press, NY, pp. 705-747), Pseudomonas. syringae pv tomato (Pst) DC3000 (Cuppels, 1986, Appl. Environ. Microbiol. 52, 323-327) and Xanthomonas campestris pv campestris (Xcc) BP109 (Weiss et al., 1994, J. Bacteriol. 176, 3354-3359) have been described. The avirulence gene avrRpt2 was carried on plasmid pLH12 as described (Dong et al., 1991, Plant Cell 3, 61-72; Whalen et al., 1991, Plant Cell 3, 49-59). P. syringae strains were grown in King's B medium supplemented with appropriate antibiotics (Glazebrook and Ausubel, 1994, Proc. Natl. Acad. Sci. USA 91, 8955-8959), and Xcc BP1 09 was grown in Luria-Bertani medium supplemented with 50 μg/mL rifampicin. Bacteria were infiltrated into Arabidopsis plants as described (Glazebrook and Ausubel, 1994, PNAS USA 91, 8955-8959; Glazebrook et al., 1996, Genetics 146: 381-392). For camalexin assays, the bacterial dose for P. syringae strains was 3×10^4 colony-forming units (cfu)/cm^2 leaf area (equivalent to OD600=0.006); for Xcc BP109 it was 5×10^5 cfu/cm^2 (OD600=0.1). […]

camalexin synthesis = assay: Camalexin assay in Psm ES4326-infected leaves; type: in vivo, Arabidopsis thaliana; settings: SA sprayed one day before Psm ES4326 infection, assayed two days after infection
Source text: as §1
Phytoalexin Quantitation. […]

PR-1 = PR-1 expression (RNA blot) after SA treatment; type: in vivo, Arabidopsis thaliana
Source text: Plants and Growth Conditions. Wild-type plants (Arabidopsis thaliana ecotype Columbia (Col)) and pad4 plants from a line that had been backcrossed four times to the wild-type parent (Col) (Glazebrook et al., 1996, Genetics 143, 973-982) were used in this study. Arabidopsis ecotype Keswick (Ksk) was provided by Eric Holub (Horticulture Research International, Warwick, UK). Arabidopsis ecotype Landsberg erecta (Ler) plants carrying the nahG transgene were provided by Xinnian Dong (Bowling et al., 1994, Plant Cell 6, 1845-1857). nahG mutant plants used in this example, and all other examples, were of the Ler ecotype. Plants were grown in pots in Metro-Mix 200 soil (Scotts-Sierra Horticultural Products Company, Marysville, Ohio) in a growth chamber (22±2° C., 85% relative humidity, 100 μE s^−1 m^−2 fluorescent illumination) on a 12-hr light/dark cycle. Fully-expanded leaves of four-week old plants were used.
Inoculations with Bacteria and Treatment with Chemicals. Pseudomonas syringae pv maculicola (Psm) ES4326 (Dong et al., 1991, Plant Cell 3, 61-72; Crute et al., 1994, in Arabidopsis, eds. Meyerowitz & Somerville, Cold Spring Harbor Press, NY, pp. 705-747), Pseudomonas. syringae pv tomato (Pst) DC3000 (Cuppels, 1986, Appl. Environ. Microbiol. 52, 323-327) and Xanthomonas campestris pv campestris (Xcc) BP109 (Weiss et al., 1994, J. Bacteriol. 176, 3354-3359) have been described. […]

## O=C(O)c1ccccc1O [SA, salicylic acid]
PAD4 mRNA; six and twelve hours after treatment
  PAD4 transcript levels in npr1-1 plants: undetectable
PAD4 mRNA; wild-type (Col), six and twelve hours after treatment
  PAD4 transcript levels in wild-type plants: markedly detectable
PAD4 mRNA; wild-type (Col, Ler), pad4-1, pad4-3, pad4-4 plants
  PAD4 mRNA levels: increased rapidly after SA treatment
Psm ES4326
  resistance to Psm ES4326 (bacterial titer): induced comparable levels of resistance to Psm ES4326 in wild-type and pad4-1 plants
Camalexin synthesis
  camalexin levels in wild-type plants: little effect on camalexin levels
Camalexin synthesis; vs not pretreated
  camalexin levels in pad4-1 plants: much higher camalexin levels
PR-1; 5 mM SA one day before Psm ES4326 infection, two days after infection
  PR-1 mRNA level in pad4-1 plants: comparable to that in wild-type plants
PR-1; plants sprayed with 5 mM SA, wild-type and pad4-1, monitored for several days
  PR-1 expression in response to SA: induced similar levels of PR-1 expression in wild-type and pad4-1 plants
